Experimental data published in patent US20190298717A1 (BOARD OF REGENTS, THE UNIVERSITY OF TEXAS SYSTEM, priority 2016, published 2019).
pEC50: −log10 of the molar value. Entries after “also recorded” stand apart in the source; their conditions may differ.

Key:
SH-SY5Y cells [1] = assay: H2O2-EC50 of hydralazine and its analogs (protection from H2O2 stress); format: cell-based; settings: Homo sapiens
Experimental: To generate intracellular aldehydes, the inventors treated human neuroblastoma cell line (SH-SY5Y) with 100 μM hydrogen peroxide (H2O2) for 24 h. Carbonyl groups were quantified using 2,4-DNPH (dinitrophenylhydrazine) assay.
Cell Viability and Cytotoxicity Assay. Cell growth was analyzed using the MTT cell viability assay. Briefly, at the end of incubation/treatment, MTT reagent was diluted in culture medium and aliquoted into each well. After incubation for 2 hours, the medium was aspirated and DMSO was aliquoted into each well to disrupt the cells and dissolve the intracellular MTT dyes. Absorbance was read at 570 nm wavelength in a 96-well plate reader. Cell toxicity was detected using a LDH cell toxicity assay kit (Promega, Fitchburg Wis.). This is a coupled enzymatic assay that detects a visible color signal initially described by Nachlas et. al. The reagent contained excess concentrations of lactate and NAD+as substrates to drive the LDH reaction and produce NADH. In the presence of diaphorase, NADH drives the enzyme-catalyzed conversion of iodonitro-tetrazolium violet to a red formazan product. Briefly, DMEM medium was withdrawn from each well of the plate after treatment and briefly centrifuged to get rid of floating cells or cell debris. Then, the medium supernatant was mixed with equal volume of substrate/enzyme mixture included in the kit (lactate, NAD+, diaphorase and iodonitro-tetrazolium violet), followed by incubation at room temperature for 15 minutes before the addition of acetic acid to cease the reaction. The absorbance was read at 490 nm in a 96-well plate reader. […] Cell viability assay was performed using CellTiter-Glo assay.

SH-SY5Y cells [2] = assay: Mitochondrial membrane potential (TMRE); format: cell-based, human; settings: hydralazine 0, 10, 20 μM; isoniazid 20 μM
Experimental: Cells were stained by TMRE to tag active mitochondria. Florescence signal was quantified by Flow Jo software. […] ATP levels were measured by bioluminescent detection of luciferase activity. All data are presented normalized to cell number.
The mitochondrial membrane potential was measured as an indicator of cellular energetics and ATP content.

C. elegans = assay: Rotenone stress test in worms; format: in vivo; settings: in vivo
Description: The inventors again used rotenone to elicit PD-like changes.
Rotenone stress test. […] After 3 days young adult worms were transferred to fresh NGM plates either preloaded with rotenone alone or rotenone plus any of the abovementioned compounds. Every worm was subjected to prodding test with a worm pick every day. A worm was scored as dead when not responding to three repeated proddings. Survival curve was plotted using Prism 7.

Nrf2 = settings: SH-SY5Y, 5 μM sulforaphane
Experimental: The inventors quantified Nrf2 protein in treated cells as a first step towards validating the prediction of the Nrf2 pathway.
Nrf2 phosphorylation on serine 40 is a regulatory modification required for Nrf2 translocation to nucleus and downstream protein activation.
Western Blot Analysis. Protein expression was determined by Western blot analysis. Equal amount of protein from each sample was run in Tris-glycine SDS PAGE gel, followed by transferring to PVDF membrane. After blocking the membrane with 5% milk for 1 hour at room temperature, the membrane was incubated further for 2 hours with antibodies specific for target proteins: Nrf2, pNrf2(S40) from Novus (Littleton, Colo.); Keap1, HO-1, NQO1, GCLc, GCLm and lamin B1 from Cell Signaling (Danvers, Mass.); GAPDH from Santa Cruz (Dallas, Tex.); β-Actin from Thermo Fisher (Waltham, Mass.). The membrane was subsequently incubated with species-specific HRP-conjugated secondary antibody followed by incubation with chemiluminescence substrate and imaging. The band intensity of each of the target proteins was quantified using ImageQuant software (GE Healthcare, Sweden). Western blot analysis on worm lystaes was done similarly. […] Equal amounts of protein were run on the gel and SKN-1 protein level was detected using anti-GFP antibody.
Cell Fractionation. Nuclear and cytoplasmic fractions were separated using the protocol and NE-PER Nuclear and Cytoplasmic Extraction Reagents provided by […]. Briefly, the cells were harvested and washed with ice-cold PBS buffer. The cells were resuspended in ice-cold CER-I buffer and incubated on ice for 10 minutes, followed by addition of CER-II buffer and incubation for one more minute on ice. The lysate was centrifuged at 16,000 g for 5 minutes. The supernatant was the cytoplasmic fraction. The pellet obtained was lysed in ice-cold NER buffer to obtain nuclear protein fractions.

Row | SMILES | pEC50 (SH-SY5Y cells [1]) | other results
1 | CN(C)Nc1nncc2ccccc12 | ≤ 4.30 | 
2 | NNc1nnc(Cl)c2ccccc12 [1-Chloro-4-hydrazinyl-phthalazine, 1-Chloro-4-hydrazinylphthalazine] | ≤ 4.70 | 
3 | C#CCOc1nnc(NN)c2ccccc12 [1-Hydrazinyl-4-(prop-2-yn-1-yloxy)phthalazine] | 5.36 | 
4 | Oc1nnc(Cl)c2ccccc12 [4-Chlorophthalazin-1-ol] | ≤ 4.70 | 
5 | NNc1nnc(O)c2ccccc12 [4-Hydrazinylphthalazin-1-ol, 4-Hydrazinylphthalazin-1-ol] | ≤ 5.00 | 
6 | Cc1nc2c3ccccc3c(NN)nn2n1 [6-Hydrazinyl-2-methyl-[1,2,4]triazolo[5,1-a]phthalazine] | ≤ 4.30 | 
7 | NNC(=O)c1ccncc1 [Isonicotinohydrazide] | ≤ 4.30 | mitochondrial membrane potential / mitochondrial function (TMRE) (SH-SY5Y cells [2]): did not have a positive effects on mitochondrial function
8 | [Cl-].[Na+] [NaCl] |  | protection against rotenone-induced death (C. elegans): No protection; also recorded: did not protect worms
9 | O=c1[nH]ncc2ccccc12 [Phthalazin-1(2H)-one] | ≤ 4.30 | 
10 | C[S+]([O-])CCCCN=C=S (centres unmarked) [sulforaphane] |  | phosphorylation and nuclear localization of Nrf2 (positive control) (Nrf2): caused similar changes
